This is an account of results in US20100261708A1 (BOEHRINGER INGELHEIM INTERNATIONAL GMBH, priority 2007, published 2010).

T1 sequence (P34972 whole entry): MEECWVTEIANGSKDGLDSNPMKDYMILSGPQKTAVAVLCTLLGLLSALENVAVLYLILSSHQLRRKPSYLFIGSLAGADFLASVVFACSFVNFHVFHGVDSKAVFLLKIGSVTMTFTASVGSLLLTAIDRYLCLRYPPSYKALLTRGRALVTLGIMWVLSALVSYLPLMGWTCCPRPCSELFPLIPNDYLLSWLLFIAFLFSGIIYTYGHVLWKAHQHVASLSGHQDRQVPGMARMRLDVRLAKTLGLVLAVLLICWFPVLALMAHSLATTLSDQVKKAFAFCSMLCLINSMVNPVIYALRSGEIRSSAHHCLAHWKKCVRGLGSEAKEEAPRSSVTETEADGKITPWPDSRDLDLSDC

The first assay has as its target T1, human CB2R (Homo sapiens, UniProt P34972).
T1 construct: host or cells: CHO cells
The experiment in a line: CB2R mediated modulation of cAMP synthesis.
Settings: not given
The assay is classed as cell-based. On the procedure:
B. CB2R Mediated Modulation of cAMP Synthesis:
Compounds of the invention were evaluated for their CB2 agonist or inverse agonistic activity in accordance with the following experimental method.
CHO cells expressing human CB2R (Euroscreen) were plated at a density of 5000 cells per well in 384 well plates and incubated overnight at 37° C. After removing the media, the cells were treated with test compounds diluted in stimulation buffer containing 1 mM IBMX, 0.25% BSA and 10 uM Forskolin. The assay was incubated for 30 minutes at 37° C. Cells were lysed and the cAMP concentration was measured using DiscoverX-XS cAMP kit, following the manufacturer's protocol. In this setting, agonists will decrease forskolin induced production of cAMP while inverse agonists will further increase forskolin induced production of cAMP. EC50 of agonists were calculated as follows. The maximal amount of cAMP produced by forskolin compared to the level of cAMP inhibited by 1 uM CP55940 is defined as 100%. […] Data was analyzed using a four-parameter logistic model. (Model 205 of XLfit 4.0).
As for `O=C(C1CCOCC1)N1CCCN(c2nc3cc(C(F)(F)F)ccc3s2)CC1` [Example 65], the EC50 (usually the concentration needed to bring the measured effect to its halfway point) was determined as 35 nM.
Same read-out and setting: next, `O=C(c1ccc(Cl)cc1)N1CCCN(c2nc3ccc(Cl)cc3s2)CC1` [Example 9, [4-(6-Chloro-benzothiazol-2-yl)-[1,4]diazepan-1-yl]-(4-chloro-phenyl)-methanone]: 30 nM; `CC(C)(C)c1ccc2oc(N3CCCN(C(=O)c4ccc(Cl)cc4)CC3)nc2c1` [Example 3, [4-(5-tert-Butyl-benzooxazol-2-yl)-[1,4]diazepan-1-yl]-(4-chloro-phenyl)-methanone]: 0.14 nM; `CCc1cnc(N2CCCN(C(=O)Nc3cc(C(C)(C)C)on3)CC2)nc1` [Example 79, 4-(5-Ethyl-pyrimidin-2-yl)-[1,4]diazepane-1-carboxylic acid (5-tert-butyl-isoxazol-3-yl)-amide]: 6 nM.
Still for that read-out and setting: with `Cc1nc(NC(=O)N2CCCN(c3ncc(C(F)(F)F)cc3Cl)CC2)sc1C(C)(C)C` [Example 14, 4-(3-Chloro-5-trifluoromethyl-pyridin-2-yl)-[1,4]diazepane-1-carboxylic acid (5-tert-butyl-4-methyl-thiazol-2-yl)-amide] the figure was 0.94 nM; with `CC(C)(C)c1cc(NC(=O)N2CCCN(c3ncc(Cl)cc3Cl)CC2)no1` [Example 21, 4-(3,5-Dichloro-pyridin-2-yl)-[1,4]diazepane-1-carboxylic acid (5-tert-butyl-isoxazol-3-yl)-amide], 44 nM.

Still in this assay, the particulars now being: read-out: CB2 CAMP @EC50.
For `Cc1ccc(Cl)c2sc(N3CCCN(C(=O)N4CCOCC4)CC3)nc12` [Example 39, [4-(7-Chloro-4-methyl-benzothiazol-2-yl)-[1,4]diazepan-1-yl]-morpholin-4-yl-methanone], the EC50 was 2 nM.
Same read-out and setting: next, `O=C(C1CCC(O)CC1)N1CCCN(c2nc3cc(C(F)(F)F)ccc3o2)CC1` (stereo not shown) [Example 32, (4-Hydroxy-cyclohexyl)-[4-(5-trifluoromethyl-benzooxazol-2-yl)-[1,4]diazepan-1-yl]-methanone]: 19 nM.
On the same count and under the same terms, with `O=C(C1CCOCC1)N1CCCN(c2nc3cc(-c4ccccc4)ccc3o2)CC1` [Example 71, [4-(5-Phenyl-benzooxazol-2-yl)-[1,4]diazepan-1-yl]-(tetrahydro-pyran-4-yl)-methanone] the figure was 77 nM; with `Cc1ccc(Cl)c2sc(N3CCCN(C(=O)C4CCOCC4)CC3)nc12` [Example 43, [4-(7-Chloro-4-methyl-benzothiazol-2-yl)-[1,4]diazepan-1-yl]-(tetrahydro-pyran-4-yl)-methanone], 114 nM; with `O=C(N1CCOCC1)N1CCCN(c2nc3cc(Cl)ccc3o2)CC1` [Example 72, [4-(5-Chloro-benzooxazol-2-yl)-[1,4]diazepan-1-yl]-morpholin-4-yl-methanone], 490 nM.
Same read-out and setting: with `O=C(c1ccc(Cl)cc1)N1CCCN(c2nc(-c3ccccc3)ns2)CC1` [Example 11, (4-Chloro-phenyl)-[4-(3-phenyl-[1,2,4]thiadiazol-5-yl)-[1,4]diazepan-1-yl]-methanone] the figure was 5 nM.
Take `O=C(C1CCC(F)(F)CC1)N1CCCN(c2nc3cc(C(F)(F)F)ccc3o2)CC1` [Example 67, (4,4-Difluoro-cyclohexyl)-[4-(5-trifluoromethyl-benzooxazol-2-yl)-[1,4]diazepan-1-yl]-methanone]: the EC50 came out at 10 nM.
For `Cc1cc(Cl)cc2sc(N3CCCN(C(=O)C4CCOCC4)CC3)nc12` [Example 42, [4-(6-Chloro-4-methyl-benzothiazol-2-yl)-[1,4]diazepan-1-yl]-(tetrahydro-pyran-4-yl)-methanone], the EC50 was 221 nM.
Consider `Cc1csc(NC(=O)N2CCCN(c3ncc(C(F)(F)F)cc3Cl)CC2)n1` [Example 6, 4-(3-Chloro-5-trifluoromethyl-pyridin-2-yl)-[1,4]diazepane-1-carboxylic acid (4-methyl-thiazol-2-yl)-amide], for which the EC50 came to 30 nM.
Take `FC(F)(F)c1cnc(N2CCCN(c3nc4cc(C(F)(F)F)ccc4o3)CC2)c(Cl)c1` [Example 49, 2-[4-(3-Chloro-5-trifluoromethyl-pyridin-2-yl)-[1,4]diazepan-1-yl]-5-trifluoromethyl-benzooxazole]: the EC50 is 54 nM.
Still for that read-out and setting: next, `Cc1cc(C)c2sc(N3CCCN(C(=O)C4CCOCC4)CC3)nc2c1` [Example 47, [4-(5,7-Dimethyl-benzothiazol-2-yl)-[1,4]diazepan-1-yl]-(tetrahydro-pyran-4-yl)-methanone]: 53 nM.
The same measure, in the same setting: with `CC(C)(C)c1cc(NC(=O)N2CCCN(c3nccc(C(F)(F)F)n3)CC2)no1` [Example 23, 4-(4-Trifluoromethyl-pyrimidin-2-yl)-[1,4]diazepane-1-carboxylic acid (5-tert-butyl-isoxazol-3-yl)-amide] the figure was 333 nM; with `O=C(C1CCOCC1)N1CCCN(c2ncc(CN3CCOCC3)s2)CC1` [Example 54, [4-(5-Morpholin-4-ylmethyl-thiazol-2-yl)-[1,4]diazepan-1-yl]-(tetrahydro-pyran-4-yl)-methanone], 14 nM.
Same read-out and setting: next, `CCC(C)c1cc(NC(=O)N2CCCN(c3ncc(C(F)(F)F)cc3Cl)CC2)n(C)n1` (stereo not shown) [Example 68, 4-(3-Chloro-5-trifluoromethyl-pyridin-2-yl)-[1,4]diazepane-1-carboxylic acid (5-sec-butyl-2-methyl-2H-pyrazol-3-yl)-amide]: 14 nM.
Regarding `Cc1c(Cl)ccc2sc(N3CCCN(C(=O)N4CCOCC4)CC3)nc12` [Example 38, [4-(5-Chloro-4-methyl-benzothiazol-2-yl)-[1,4]diazepan-1-yl]-morpholin-4-yl-methanone], the EC50 came out at 204 nM.
The same measure, in the same setting: next, `Cn1nc(C(C)(C)C)cc1NC(=O)N1CCCN(c2ncc(Cl)cc2Cl)CC1` [Example 28, 4-(3,5-Dichloro-pyridin-2-yl)-[1,4]diazepane-1-carboxylic acid (5-tert-butyl-2-methyl-2H-pyrazol-3-yl)-amide]: 500 nM; `CC(C)(C)c1ccc2oc(N3CCCN(C(=O)C4CCC(F)(F)CC4)CC3)nc2c1` [Example 4, [4-(5-tert-Butyl-benzooxazol-2-yl)-[1,4]diazepan-1-yl]-(4,4-difluoro-cyclohexyl)-methanone]: 0.017 nM.
Still for that read-out and setting: next, `O=C(C1CCOCC1)N1CCCN(c2nc3cc(C(F)(F)F)ccc3o2)CC1` [Example 5, (Tetrahydro-pyran-4-yl)-[4-(5-trifluoromethyl-benzooxazol-2-yl)-[1,4]diazepan-1-yl]-methanone]: 43 nM.
Still for that read-out and setting: with `Cc1c(Cl)ccc2sc(N3CCCN(C(=O)C4CCOCC4)CC3)nc12` [Example 48, [4-(5-Chloro-4-methyl-benzothiazol-2-yl)-[1,4]diazepan-1-yl]-(tetrahydro-pyran-4-yl)-methanone] the figure was 3 nM; with `O=C(C1CCOCC1)N1CCCN(c2nc3ccc(Cl)cc3o2)CC1` [Example 70, [4-(6-Chloro-benzooxazol-2-yl)-[1,4]diazepan-1-yl]-(tetrahydro-pyran-4-yl)-methanone], 180 nM; with `Cc1ccc(C)c2sc(N3CCCN(C(=O)C4CCOCC4)CC3)nc12` [Example 46, [4-(4,7-Dimethyl-benzothiazol-2-yl)-[1,4]diazepan-1-yl]-(tetrahydro-pyran-4-yl)-methanone], 445 nM.
Regarding `Cc1ccnc(N2CCCN(C(=O)Nc3cc(C(C)(C)C)on3)CC2)n1` [Example 81, 4-(4-Methyl-pyrimidin-2-yl)-[1,4]diazepane-1-carboxylic acid (5-tert-butyl-isoxazol-3-yl)-amide], the EC50 came to 344 nM.
On the same count and under the same terms, next, `O=C(N1CCCN(c2nc3ccccc3[nH]2)CC1)N1CCS(=O)(=O)CC1` [Example 56, [4-(1H-Benzoimidazol-2-yl)-[1,4]diazepan-1-yl]-(1,1-dioxo-1λ^6-thiomorpholin-4-yl)-methanone]: 327 nM; `Cc1ccc2nc(N3CCCN(C(=O)C4CCOCC4)CC3)sc2c1` [Example 64, [4-(6-Methyl-benzothiazol-2-yl)-[1,4]diazepan-1-yl]-(tetrahydro-pyran-4-yl)-methanone]: 110 nM; `O=C(C1CCOCC1)N1CCCN(c2nc(-c3ccccc3)cs2)CC1` [Example 53, [4-(4-Phenyl-thiazol-2-yl)-[1,4]diazepan-1-yl]-(tetrahydro-pyran-4-yl)-methanone]: 217 nM.
`CC(C)(C)SCCNC(=O)N1CCCN(c2ncc(C(F)(F)F)cc2Cl)CC1` [Example 15, 4-(3-Chloro-5-trifluoromethyl-pyridin-2-yl)-[1,4]diazepane-1-carboxylic acid (2-tert-butylsulfanyl-ethyl)-amide]: the EC50 amounted to 21 nM.
Turning to `Cc1csc2ncnc(N3CCCN(C(=O)N4CCOCC4)CC3)c12` [Example 86, [4-(5-Methyl-thieno[2,3-d]pyrimidin-4-yl)-[1,4]diazepan-1-yl]-morpholin-4-yl-methanone], the EC50 worked out at 45.2 nM.
Turning to `N#Cc1cnc(N2CCCN(C(=O)C3CCOCC3)CC2)s1` [Example 34, 2-[4-(Tetrahydro-pyran-4-carbonyl)-[1,4]diazepan-1-yl]-thiazole-5-carbonitrile], the EC50 turned out to be 40 nM.
